Legend:
Assay in all cases: fitness (endpoint OD595 vs no drug) (fraction); higher = more growth
S. aureus DSM 20231 = system: S. aureus DSM 20231
Summary of the method: (§1)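 Plates with 384 wells were inoculated at OD595 0.01 using 30 µl of TSB, LB Lennox or CY, or 55 µl for S. pneumoniae. Incubation was at 37 °C, with OD595 measured every 30 min for 14 h. Fitness is the stationary-phase transition optical density over the robust mean of no-drug control wells, after first-reading background subtraction; it is capped at 1.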

S. aureus Newman = system: S. aureus Newman
Summary of the method: as §1

S. pneumoniae D39V = system: S. pneumoniae D39V
Summary of the method: as §1

B. subtilis 168 = system: B. subtilis 168
Summary of the method: as §1

O=C(N[C@H](CO)[C@H](O)c1ccc([N+](=O)[O-])cc1)C(Cl)Cl [Chloramphenicol] + CN(C)[C@@H]1C(O)=C(C(N)=O)C(=O)[C@@]2(O)C(O)=C3C(=O)c4c(O)ccc(Cl)c4[C@@](C)(O)[C@H]3C[C@@H]12 [Chlortetracycline]
S. aureus DSM 20231, partner 0.006 µg/mL, one replicate
Conditions	fitness
first compound 0.75 µg/mL	0.62
first compound 1.5 µg/mL	0.558

fitness, S. aureus DSM 20231
Conditions	first compound 0.75 µg/mL	first compound 1.5 µg/mL	first compound 3 µg/mL
partner 0.012 µg/mL	0.476	–	0.0949
partner 0.024 µg/mL	0.288	–	0.0799
partner 0.048 µg/mL	–	0.127	0.0661

O=C(N[C@H](CO)[C@H](O)c1ccc([N+](=O)[O-])cc1)C(Cl)Cl [Chloramphenicol] + CO/N=C(\C(=O)N[C@@H]1C(=O)N2C(C(=O)O)=C(COC(C)=O)CS[C@H]12)c1csc(N)n1 [Cefotaxime]
fitness
Conditions	first compound 0.75 µg/mL	first compound 1.5 µg/mL	first compound 3 µg/mL
S. aureus DSM 20231, partner 0.039 µg/mL	0.649	0.629	0.137
S. aureus DSM 20231, partner 0.078 µg/mL	0.672	0.618	0.191
S. aureus DSM 20231, partner 0.156 µg/mL	0.641	0.599	0.194
S. aureus Newman, partner 0.078 µg/mL	0.534	0.321	0.136
S. aureus Newman, partner 0.156 µg/mL	0.406	0.206	0.0948
S. aureus Newman, partner 0.312 µg/mL	0.198	0.0711	0.065

fitness, one replicate
Conditions	first compound 0.75 µg/mL	first compound 1.5 µg/mL	first compound 3 µg/mL
S. aureus DSM 20231, partner 0.312 µg/mL	0.607	0.586	0.227
S. aureus Newman, partner 0.625 µg/mL	0.0565	0.0229	0.0195
S. aureus Newman, partner 1.25 µg/mL	0.0337	0.0237	0.0515
S. aureus Newman, partner 2.5 µg/mL	0.0674	0.0266	0.0651

O=C(N[C@H](CO)[C@H](O)c1ccc([N+](=O)[O-])cc1)C(Cl)Cl [Chloramphenicol] + CO/N=C(\C(=O)N[C@@H]1C(=O)N2C(C(=O)[O-])=C(C[N+]3(C)CCCC3)CS[C@H]12)c1csc(N)n1 [Cefepime]
fitness
Conditions	partner 0.125 µg/mL	partner 0.25 µg/mL	partner 0.5 µg/mL
S. aureus DSM 20231, first compound 0.75 µg/mL	0.749	0.83	0.811
S. aureus DSM 20231, first compound 1.5 µg/mL	0.661	0.699	0.645
S. aureus DSM 20231, first compound 3 µg/mL	0.19	0.22	0.233
S. aureus Newman, first compound 0.75 µg/mL	0.756	0.685	0.611
S. aureus Newman, first compound 3 µg/mL	–	0.275	0.234

O=C(N[C@H](CO)[C@H](O)c1ccc([N+](=O)[O-])cc1)C(Cl)Cl [Chloramphenicol] + CO[C@@]12[C@H](COC(N)=O)C3=C(C(=O)C(C)=C(N)C3=O)N1C[C@@H]1N[C@@H]12 [Mitomycin C]
fitness
Conditions	first compound 0.75 µg/mL	first compound 1.5 µg/mL	first compound 3 µg/mL
S. aureus DSM 20231, partner 0.0156 µg/mL	0.598	0.431	0.0667
S. aureus DSM 20231, partner 0.0312 µg/mL	0.572	0.367	0.0823
S. aureus DSM 20231, partner 0.0625 µg/mL	0.453	0.245	0.0494
S. aureus Newman, partner 0.0156 µg/mL	0.577	0.442	0.259
S. aureus Newman, partner 0.0312 µg/mL	0.537	0.363	0.144
S. aureus Newman, partner 0.0625 µg/mL	0.399	0.3	0.0938

O=C(N[C@H](CO)[C@H](O)c1ccc([N+](=O)[O-])cc1)C(Cl)Cl [Chloramphenicol] + N[C@@H]1CONC1=O [Cycloserine D]
fitness
Conditions	partner 0.375 µg/mL	partner 0.75 µg/mL	partner 1.5 µg/mL
S. aureus DSM 20231, first compound 0.75 µg/mL	0.642	0.662	0.66
S. aureus DSM 20231, first compound 3 µg/mL	0.0914	0.0972	0.0952
S. aureus Newman, first compound 0.75 µg/mL	0.813	0.824	0.801
S. aureus Newman, first compound 1.5 µg/mL	0.573	0.542	0.571
S. aureus Newman, first compound 3 µg/mL	0.201	0.164	0.165

CCC[C@@H]1C[C@@H](C(=O)N[C@@H]([C@H]2O[C@H](SC)[C@H](O)[C@@H](O)[C@H]2O)[C@H](C)Cl)N(C)C1 [Clindamycin] + CC1=C(C(=O)O)N2C(=O)[C@@H](NC(=O)[C@H](N)c3ccccc3)[C@H]2SC1 [Cephalexin]
Conditions	fitness
B. subtilis 168, first compound 0.0625 µg/mL, partner 0.125 µg/mL	0.556
B. subtilis 168, first compound 0.0625 µg/mL, partner 0.25 µg/mL	0.465
B. subtilis 168, first compound 0.0625 µg/mL, partner 0.5 µg/mL	0.482
B. subtilis 168, first compound 0.125 µg/mL, partner 0.125 µg/mL	0.376
B. subtilis 168, first compound 0.125 µg/mL, partner 0.25 µg/mL	0.344
B. subtilis 168, first compound 0.125 µg/mL, partner 0.5 µg/mL	0.348
B. subtilis 168, first compound 0.25 µg/mL, partner 0.125 µg/mL	0.351
B. subtilis 168, first compound 0.25 µg/mL, partner 0.25 µg/mL	0.335
B. subtilis 168, first compound 0.25 µg/mL, partner 0.5 µg/mL	0.34
S. aureus Newman, first compound 0.0312 µg/mL, partner 0.5 µg/mL	0.795
S. aureus Newman, first compound 0.0312 µg/mL, partner 1 µg/mL	0.82
S. pneumoniae D39V, first compound 0.0125 µg/mL, partner 1 µg/mL	0.733
S. pneumoniae D39V, first compound 0.0125 µg/mL, partner 2 µg/mL	0.453
S. pneumoniae D39V, first compound 0.0125 µg/mL, partner 4 µg/mL	0.0549
S. pneumoniae D39V, first compound 0.025 µg/mL, partner 1 µg/mL	0.519
S. pneumoniae D39V, first compound 0.025 µg/mL, partner 2 µg/mL	0.294
S. pneumoniae D39V, first compound 0.025 µg/mL, partner 4 µg/mL	0.0703
S. pneumoniae D39V, first compound 0.05 µg/mL, partner 1 µg/mL	0.179
S. pneumoniae D39V, first compound 0.05 µg/mL, partner 2 µg/mL	0.114
S. pneumoniae D39V, first compound 0.05 µg/mL, partner 4 µg/mL	0.0475

fitness, one replicate
Conditions	first compound 0.0039 µg/mL	first compound 0.0078 µg/mL	first compound 0.015 µg/mL	first compound 0.0156 µg/mL	first compound 0.03 µg/mL	first compound 0.06 µg/mL
B. subtilis 168, partner 0.25 µg/mL	≥ 1	0.863	–	0.839	–	–
B. subtilis 168, partner 0.5 µg/mL	0.984	0.844	–	0.868	–	–
B. subtilis 168, partner 1 µg/mL	0.96	0.886	–	0.883	–	–
S. pneumoniae D39V, partner 0.125 µg/mL	–	–	0.898	–	0.751	0.642
S. pneumoniae D39V, partner 0.25 µg/mL	–	–	0.87	–	0.799	0.667
S. pneumoniae D39V, partner 0.5 µg/mL	–	–	0.899	–	0.836	0.645

Source: the supplement of paper PMC10627819
